Experimental data from patent publication US20210253651A1, “METHOD FOR PRODUCING ORGANIC COMPOUND-ENCAPSULATING FERRITIN” (Ajinomoto Co., Inc., priority 2018, published 2021).
Where a name gives a salt, the structure may show the parent alone.

What was measured:
[1] = biological target: T1, FTH ferritin (Homo sapiens, UniProt P02794); assay: ratio of amounts incorporated, one-step vs disassembly-reassembly process; assay type: physicochemical
T1 construct: made in house; host or cells: Escherichia coli BL21 (DE3), plasmid pET20-FTH
T1 sequence (P02794 whole entry): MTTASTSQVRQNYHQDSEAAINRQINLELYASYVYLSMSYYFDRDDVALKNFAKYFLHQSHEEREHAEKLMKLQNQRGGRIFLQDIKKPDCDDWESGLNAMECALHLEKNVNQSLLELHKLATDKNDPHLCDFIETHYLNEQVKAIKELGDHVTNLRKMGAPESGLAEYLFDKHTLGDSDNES
Procedure: As a control, some of small molecule agents listed in Table 1 was incorporated into ferritin also at the disassembly-reassembly process. […] Then, 10 μL of 1M Tris-HCl buffer (pH 9.0) was added for neutralization, and the resulting solution was left to stand for 15 minutes at room temperature. After the standing, 0.5 mL of water was added. After the resulting solution was centrifuged (at 15,000 rpm for one minute), the supernatant was injected into the desalting column PD-10 (Sephadex G-25 filled product, GE Healthcare Inc.) equilibrated with 10 mM Tris-HCl buffer (pH 8) to separate the protein from a reagent that was not encapsulated. […]
The absorbances were measured using spectrophotometer (DU-800, Beckman Coulter Inc.) for these solutions, and the concentration of contained protein was determined using the protein assay CBB solution (Nacalai Tesque, Inc.) as well as bovine albumin as a standard. Absorbances at 280 nm and 480 nm were measured for Rhodamine B and Congo Red. […] Then, after the absorbances were calibrated based on the absorbances that were derived from the proteins and presumed by the amount of contained protein quantified using the protein assay CBB solution, the concentrations of small molecule agents were determined based on the calibration curves obtained by the absorbances of the molecules. […]

[2] = room temperature; cited from earlier work
[3] = biological target: T2, FTHc ferritin (Homo sapiens, UniProt P02794); assay: one-step incorporation of DOX into mutant ferritin FTHc; assay type: physicochemical; settings: pH 8, 50° C., 60 minutes, DOX 0.3 mg/L
T2 construct: pET20-FTH carrying a DNA encoding a human-derived ferritin H chain monomer as a template; single cysteine residue (C) appended; made in house; host or cells: Escherichia coli BL21 (DE3), plasmid pET20-FTHc
T2 sequence (P02794 with tags, fused parts or gaps): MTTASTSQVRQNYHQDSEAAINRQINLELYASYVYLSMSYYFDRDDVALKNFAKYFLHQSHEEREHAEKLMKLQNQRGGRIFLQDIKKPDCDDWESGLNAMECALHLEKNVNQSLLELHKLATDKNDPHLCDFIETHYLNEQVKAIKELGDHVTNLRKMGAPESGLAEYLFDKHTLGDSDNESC
Procedure: PCR was carried out using pET20-FTH carrying a DNA encoding a human-derived ferritin H chain monomer as a template as well as the following primers: 5′-[…]-3′ (SEQ ID NO: 12) and 5′-[…]-3′ (SEQ ID NO: 13). The resulting PCR products were purified using Wizard DNA Clean-Up System (Promega Corporation), and then treated with restriction enzymes, Dpnl and BamHI (Takara Bio Inc.) for self-ligation in order to construct an expression plasmid (pET20-FTHc) carrying a gene encoding FTHc monomer with a cysteine added to the C-terminus. Ferritin including FTHc monomers is referred to as FTHc ferritin, as appropriate.
DOX was mixed with 1 mL of 50 mM Tris-HCl buffer (pH 8) that contains each mutate ferritin at a final concentration of 1 mg/mL, to achieve a final concentration of 0.3 mg/L, and then the resulting solutions were left to stand at 50° C. for 60 minutes. After the standing and centrifuging (at 15,000 rpm for one minute), the supernatant was injected into the desalting column PD-10 (Sephadex G-25 filled product, GE Healthcare Inc.) equilibrated with 10 mM Tris-HCl buffer (pH 8) to separate the protein from a reagent that was not encapsulated. […] The concentration of contained protein was determined using the protein assay CBB solution (Nacalai Tesque, Inc.) as well as bovine albumin as a standard. The DOX concentration was determined based on analysis of the absorbance at 480 nm.

**Q.** For `COc1cccc2c1C(=O)c1c(O)c3c(c(O)c1C2=O)C[C@@](O)(C(=O)CO)C[C@@H]3OC1CC(N)C(O)C(C)O1` (stereo partly drawn) [DOX, Doxorubicin hydrochloride], which “ratio of amount incorporated at the one-step process to that at the disassembly-reassembly process” value [1] is on record?
**A.** Its value is 30 fold.

**Q.** And the “solubility of DOX in water” value [2]?
**A.** Its value is at least 60 mg/mL.

**Q.** And the “incorporation efficiency of the reagent” value [3]?
**A.** Its value is 8.6 % (wt).
